The record followed here is publication PMC7002685, “Inhibition of vascular calcification by inositol phosphates derivatized with ethylene glycol oligomers” (Nature Communications, 2020).

The subject of series [1] is THP-1-derived macrophages. The series can be described thus: Macrophage viability, compound without CPP2. Type of series: cell-based, human. On the procedure:
Cell viability was assessed using the MTS assay (CellTiter 96® Aqueous One Solution Cell Proliferation Assay, G3580; Promega, Madison, WI, USA) according to the manufacturer’s instructions. Assays using combined treatment of CPPs or CaP and test compounds were performed in 24-well plates using 20,000 cells per well and assays using test compounds only were performed in a 96-well plate format with a seeding density of 10,000 (VSMC) or 50,000 (THP-1) cells per well, respectively. For controls, cells were treated with respective complete medium only and results were calculated as % of control. […]
(n = 3 independent experiments).

Series [2] is described as follows: Compound stress test in D2O at 37 °C (NMR). Type of series: physicochemical. Particulars: up to 6 weeks. On the procedure:
For the compound stress test, 20.25 mg (OEG2)2-IP4 in 700 µL D2O was incubated at 37 °C and stability was monitored by ^1H-NMR and ^31P-NMR spectroscopies for up to 6 weeks.
Monitoring the stability of (OEG2)2-IP4 in aqueous solution at 37 °C for up to 6 weeks by 1H-
Monitoring the stability of (OEG2)2-IP4 in aqueous solution at 37 °C for up to 6 weeks by 31P- […]

Series [3] has as its system Potassium Channel [KATP]. The series can be described thus: Off-target 265600. Type of series: binding, Hamster. The conditions noted are these: 10 µM. On the procedure: (§1) The potential off-target activity of 10 µM (OEG2)2-IP4 was assessed against a panel of 87 enzymes, receptors, or ion channels that are used in standard safety pharmacology screens.
(§2) 3.2. Off-target screening assay
(§3) The experiments were conducted by a contract research organization (Eurofins Panlabs Discovery
(§4) Services Taiwan, Ltd.) and details on the respective assays can be retrieved via the catalog number
(§5) provided in Supplementary Table 11 from the company’s webpage
(§6) (https://www.eurofinsdiscoveryservices.com/). […]

Series [4] has as its target T1, Muscarinic M4 (Homo sapiens, UniProt P08173).
T1 construct: purchased Eurofins Panlabs Discovery Services Taiwan, Ltd
The series can be described thus: Off-target 252910. Type of series: binding. On the procedure: as §1, §2, §3, §4, §5, §6

For series [5], the target named is T2, Transporter, Norepinephrine (NET) (Homo sapiens, UniProt P23975).
T2 construct: purchased Eurofins Panlabs Discovery Services Taiwan, Ltd
Kind of series: Off-target 204410. Type of series: binding. On the procedure: as §1, §2
The experiments were conducted by a contract research organization (Eurofins Panlabs Discovery Services Taiwan, Ltd.) and details on the respective assays can be retrieved via the catalog number provided in Supplementary Table 11 from the company’s webpage
as §6
At sacrifice the left tibia of animals of the rat model with dietary adenine/high-phosphate-induced uremia and VC was collected, fixed with 70% v/v EtOH and embedded in methyl methacrylate. The trabecular bone compartment is known to be the most metabolic active i.e. actively re-structured bone compartment in CKD. Therefore, histomorphometric and micro-computed tomography (µCT) analysis of bone was performed on the trabecular compartment. Tibial sections were Goldner-stained for histomorphometric analysis of the proximal metaphysis using the AxioVision Release 4.5 software, as […]
described previously5. […]

The target of series [6] is T3, Chemokine CCR1 (Homo sapiens, UniProt P32246).
T3 construct: purchased Eurofins Panlabs Discovery Services Taiwan, Ltd
The series can be described thus: Off-target 217510. Type of series: binding. On the procedure:
as §1, §2, §3, §4, §5, §6

T1 sequence (P08173 whole entry): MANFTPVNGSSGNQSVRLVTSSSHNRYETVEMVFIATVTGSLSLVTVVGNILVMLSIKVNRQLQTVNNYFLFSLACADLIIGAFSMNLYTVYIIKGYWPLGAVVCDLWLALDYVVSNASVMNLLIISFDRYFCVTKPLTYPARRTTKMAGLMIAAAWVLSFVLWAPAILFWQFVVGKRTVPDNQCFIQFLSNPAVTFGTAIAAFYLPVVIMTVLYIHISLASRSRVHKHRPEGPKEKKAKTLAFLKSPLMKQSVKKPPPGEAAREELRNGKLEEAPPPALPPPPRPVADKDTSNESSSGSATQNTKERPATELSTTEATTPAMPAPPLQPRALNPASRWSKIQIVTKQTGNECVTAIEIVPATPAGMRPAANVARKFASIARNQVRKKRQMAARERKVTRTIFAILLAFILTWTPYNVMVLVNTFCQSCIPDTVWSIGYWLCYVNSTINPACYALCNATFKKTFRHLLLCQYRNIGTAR
T3 sequence (P32246 whole entry): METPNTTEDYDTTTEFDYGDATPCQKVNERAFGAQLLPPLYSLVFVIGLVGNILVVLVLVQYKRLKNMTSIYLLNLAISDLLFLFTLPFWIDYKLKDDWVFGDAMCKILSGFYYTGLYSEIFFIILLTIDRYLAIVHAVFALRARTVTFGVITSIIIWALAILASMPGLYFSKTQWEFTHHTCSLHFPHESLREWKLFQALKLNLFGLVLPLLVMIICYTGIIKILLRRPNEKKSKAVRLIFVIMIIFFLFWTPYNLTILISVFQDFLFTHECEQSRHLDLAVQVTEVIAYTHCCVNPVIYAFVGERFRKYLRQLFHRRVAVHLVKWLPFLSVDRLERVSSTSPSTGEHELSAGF
T2 sequence (P23975 whole entry): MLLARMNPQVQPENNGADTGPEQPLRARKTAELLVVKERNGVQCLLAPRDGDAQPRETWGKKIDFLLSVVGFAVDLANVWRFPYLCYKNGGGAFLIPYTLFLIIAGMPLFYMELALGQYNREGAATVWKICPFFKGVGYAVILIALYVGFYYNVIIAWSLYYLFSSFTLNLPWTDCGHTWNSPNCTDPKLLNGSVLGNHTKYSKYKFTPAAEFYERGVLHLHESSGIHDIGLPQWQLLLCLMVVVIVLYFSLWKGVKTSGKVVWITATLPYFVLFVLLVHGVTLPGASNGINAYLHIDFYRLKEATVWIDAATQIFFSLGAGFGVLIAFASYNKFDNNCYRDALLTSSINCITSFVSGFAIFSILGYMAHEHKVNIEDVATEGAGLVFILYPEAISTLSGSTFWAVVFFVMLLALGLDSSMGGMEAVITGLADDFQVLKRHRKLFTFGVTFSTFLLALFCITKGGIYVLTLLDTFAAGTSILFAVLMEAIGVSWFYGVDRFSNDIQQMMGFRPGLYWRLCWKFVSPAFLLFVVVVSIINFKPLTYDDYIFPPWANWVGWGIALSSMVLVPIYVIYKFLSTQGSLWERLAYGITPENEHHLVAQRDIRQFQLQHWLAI

The term % Inhibition denotes the percentage by which the read-out fell short of the control. A higher % Inhibition goes with a response far below the control. By inhibition is commonly meant the relative decrease from the control value, in per cent. `COCCOCCO[C@@H]1[C@@H](OP(=O)(O)O)[C@H](OCCOCCOC)[C@@H](OP(=O)(O)O)[C@@H](OP(=O)(O)O)[C@H]1OP(=O)(O)O` [(OEG2)2-IP4, 4,6-Di-O-(methoxy-diethyleneglycol)-myo-inositol-1,2,3,5-tetrakis(phosphate)]: the macrophage viability entry in series [1] is listed as “does not alter viability”. In addition, the “stability in aqueous solution by 1H- and 31P-NMR” value in series [2] was “No compound degradation was evident”. The “% Inhibition” value in series [3] is recorded as 14%. The inhibition at 10 µM in series [4] is 1%; in series [5], 20%; in series [6], -2%.
